Data on 8 molecules can be found in PubChem BioAssay (NCI).

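A five-concentration, 48-hour dose response in 96-well plates underlies each endpoint, interpolated linearly between surrounding concentrations. The concentration for 50% growth inhibition is given as GI50. TGI marks complete inhibition of growth.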

Holding throughout (assay): DTP human tumour cell line panel, 48 h
In test [1] the test system is NCI-H460 lung.
The subject of test [2] is UACC-62 melanoma.
Test [3] relates to MCF7 breast.
Test [4] deals with HOP-62 NSCLC.
Test [5] concerns SNB-19 CNS.
The test system of test [6] is NCI/ADR-RES ovarian.
Test [7] concerns U251 CNS.
For test [8], the system named is HCT-15 colon.
For test [9], the system named is A549 NSCLC.
In test [10] the test system is UO-31 renal.

`Cc1cc(S(=O)(=O)/N=C/N(C)C)c(SC(=O)c2ccc(Cl)cc2)cc1Cl`: the GI50 (commonly the concentration at which growth is held to half of that of the control) in [1] was 56.5 µM; in test [2], 29.9 µM; in test [3], 37.1 µM; in test [4], 41.8 µM; in [5], 53.8 µM; in test [6], 28.4 µM. Moreover, the GI50 was 27 µM in test [7], 19.2 µM in [8], 34.1 µM in test [9] and greater than 100 µM in test [10]. Besides, the concentration for total growth inhibition (TGI) (in general, the concentration at which net growth stops) in test [1] was greater than 100 µM; in [2] it was greater than 100 µM; in [3], greater than 100 µM; in test [4], greater than 100 µM; in test [5], greater than 100 µM; in test [6], 72.2 µM. Besides, the TGI in test [7] is 71.1 µM; in [8], 37 µM; in test [9], 85.2 µM; in [10], greater than 100 µM.

With `CCN(Cc1ccc(F)cc1)c1ccc(CO)c(C)c1`, the GI50 was 11.5 µM in [1]; 1.19 µM in test [2]; 15.1 µM in test [3]; 17.7 µM in [4]; 31.4 µM in [5]; 16.8 µM in [6]. The GI50 in test [7] was 12.1 µM; in test [8], 8.86 µM; in test [9], 17.1 µM; in [10] it was 9.34 µM. In addition, the TGI in test [1] was 32.3 µM; in test [2], 6.87 µM; in test [3], greater than 52.2 µM; in test [4], 39.1 µM; in test [5] it was greater than 100 µM; in test [6], 53.5 µM. The TGI was found to be 40.1 µM in test [7], 39.4 µM in test [8], 69.4 µM in test [9] and 25.1 µM in test [10].

As for `O=C(O)c1cn(C2CC2)c2cc(N3CCN(C(=O)Nc4nc(-c5ccccc5)cs4)CC3)c(F)cc2c1=O`, the GI50 in [1] was 0.445 µM; in test [2] it was 0.67 µM; in [3] it was 1.72 µM; in test [4] it was 2.67 µM; in test [5], 1.12 µM; in test [6], 4.82 µM. Besides, the GI50 in test [7] was 0.474 µM; in [8] it was 2.27 µM; in test [9] it was 2.15 µM; in [10] it was 0.876 µM. Moreover, the concentration for total growth inhibition (TGI) in test [1] is greater than 100 µM; in test [2] it was 8.52 µM; in test [3] it was greater than 100 µM; in test [4] it was 82.4 µM; in test [5], greater than 100 µM; in test [6], greater than 100 µM. The concentration for total growth inhibition (TGI) is 14.1 µM in test [7], greater than 100 µM in [8], greater than 100 µM in test [9] and greater than 100 µM in [10].

As to `CC(C)N1CCN(Cc2ccc3c(NNC(=O)c4ccccc4)nc4cc(F)ccc4n23)CC1`, the GI50 in test [1] is 0.128 µM; in [2], 0.388 µM; in test [3], 0.341 µM; in test [4], 0.176 µM; in test [5] it was 0.537 µM; in test [6] it was 0.237 µM. Moreover, the 50% growth inhibitory concentration (GI50) in [7] was 0.296 µM; in test [8], 0.0563 µM; in test [9], 0.465 µM; in [10], 0.0688 µM. For the same molecule, the TGI in test [1] was 1.4 µM; in test [2] it was 2.67 µM; in [3], 1.48 µM; in test [4], 13.7 µM; in test [5], 8.07 µM; in [6], 4.53 µM. In addition, the concentration for total growth inhibition (TGI) stood at 2.01 µM in test [7], 3.91 µM in test [8], 8.47 µM in test [9] and 3.14 µM in test [10].

Take `COC(=O)C1OC2(CCCC3CC32)O[C@H]1C(=O)OC` (stereo not given in full): the TGI in test [1], in test [2], in [3], in test [4], in test [5] and in [6] was greater than 100 µM each time. In addition, the TGI in test [7], in [8], in test [9] and in test [10] was greater than 100 µM each time.

As for `CCN1C(=O)CCCc2c1ccc(Nc1ncc(Cl)c(NC3[C@@H](C(N)=O)[C@@H]4C=C[C@H]3C4)n1)c2OC` (stereo not given in full), the GI50 is 0.661 µM in [1]; 0.933 µM in [2]; 0.618 µM in test [3]; 2.1 µM in [4]; 1.94 µM in test [5]; 2.35 µM in test [6]. For the same molecule, the GI50 in test [7] was 1.12 µM; in test [8], 0.563 µM; in test [9] it was 0.741 µM; in test [10] it was 0.809 µM. For the same molecule, the total growth inhibition concentration (TGI) is 13.4 µM in [1]; 2.59 µM in [2]; 6.7 µM in [3]; 13.7 µM in test [4]; 14 µM in [5]; greater than 100 µM in test [6]. Moreover, the TGI in test [7] was 13.9 µM; in [8], greater than 20.5 µM; in [9] it was 5.88 µM; in test [10] it was 4.07 µM.

With `COc1cccc(CSCC(=O)O)c1`, the TGI in [1], in test [2], in [3], in test [4], in test [5] and in [6] was greater than 100 µM throughout. The TGI in [7], in [8], in test [9] and in test [10] was greater than 100 µM each time.

Turning to `Cc1cc2cc3ccc(N(C)C)cc3nc2cc1N`, the 50% growth inhibitory concentration (GI50) in test [1] was 0.234 µM; in test [2], 0.744 µM; in test [3], 0.35 µM; in [4], 0.481 µM; in test [5] it was 0.582 µM; in test [6], 2.51 µM. For the same molecule, the GI50 in test [7] is 0.312 µM; in [8], 1.4 µM; in [9] it was 0.431 µM; in test [10] it was 0.642 µM. In addition, the concentration for total growth inhibition (TGI) in test [1] is 0.68 µM; in [2], 2.71 µM; in [3], 11.2 µM; in [4], 2.45 µM; in test [5], 4.42 µM; in test [6], 23.4 µM. Further, the TGI in [7] is 1.61 µM; in test [8], 17.8 µM; in test [9], 2.61 µM; in [10], 5.01 µM.
